The source of these data is US5744451A, “N-substituted glutamic acid derivatives with interleukin-1 β converting enzyme inhibitory activity” (Warner-Lambert Company, priority 1996, dated 1998).

Molecules are shown by their SMILES. Residues, ends and D or L forms follow the SMILES beside them.

Data set [1] concerns human peripheral blood mononuclear cells (PBMCs). The data set is described as follows: Viability of PBMCs by MTT assay. The data set is classed as cell-based. The settings on record: compound at 100 μM, additional 4 hours with MTT. From the text: Further evidence that compounds of Formula I are valuable inhibitors of ICE is provided by their ability to inhibit IL-1β production in human peripheral blood mononuclear cells (PBMCs) as described herein. PBMCs are isolated from heparinized blood by centrifugation over a ficoll cushion, then washed three times with phosphate-buffered saline. PBMCs are suspended in a medium containing RPMI 1640 with glutamine, penicillin, streptomycin and 2% human AB serum, then plated at 10^6 cells per well in 96-well flat bottom plates. PBMCs are stimulated overnight with 10 ng/mL of lipopolysaccharide (LPS, E. Coli strain 0111:B4; Calbiochem) in the presence or absence of a compound of Formula I. Medium is harvested and the level of mature IL-1β was determined using an ELISA kit from R & D Systems. Cells were cultured for an additional 4 hours in the presence of 3-(4,5-dimethylthiazol-2-yl)-2,5-diphenyltetrazolium bromide (MTT) to determine viability.

Data set [2] addresses T1, ICE (interleukin-1β converting enzyme) (Homo sapiens, UniProt P29466).
T1 sequence (P29466 120-297 limits assumed): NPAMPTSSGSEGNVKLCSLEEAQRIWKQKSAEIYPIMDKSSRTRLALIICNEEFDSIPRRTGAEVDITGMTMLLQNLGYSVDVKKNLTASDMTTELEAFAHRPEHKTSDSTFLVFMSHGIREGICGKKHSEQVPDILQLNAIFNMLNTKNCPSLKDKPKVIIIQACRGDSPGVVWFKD
T1 sequence (P29466 317-404 limits assumed): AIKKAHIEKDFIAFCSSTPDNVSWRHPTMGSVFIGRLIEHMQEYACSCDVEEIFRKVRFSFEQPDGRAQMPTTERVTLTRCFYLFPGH
The data set is described as follows: ICE inhibition, fluorogenic Ac-Tyr-Val-Ala-Asp-AMC hydrolysis progress curves (Ki and kon). The class given is biochemical. To be noted: [I]=2 or 4 μM.
Method: The progress curves are fit to the equation F=F0 +Vf.t+(Vi -Vf) (1-exp(-kobs t))/kobs, where F0 is the initial fluorescence, Vi and Vf are initial and final reaction velocities, and kobs is the pseudo first-order rate of inhibition. Ki is calculated as Ki =SPF.[I]Vf /(Vi -Vf), where the substrate protection factor (SPF) is 1+[S]/Km =17.7. kon is calculated as SPF.kobs /[I].

By Ki is commonly meant the equilibrium dissociation constant of an inhibitor or competing ligand from its target. As usually defined, the kon is the rate constant with which the complex forms. Take `CC(=O)N[C@@H](Cc1ccc(O)cc1)C(=O)N[C@H](C(=O)N[C@@H](C)C(=O)N[C@H](C=O)CCC(=O)O)C(C)C` [Ac-Tyr-Val-Ala-Glu[CHO]] (Ac-YVAE-aldehyde): the “cell viability after treatment (MTT assay)” value in data set [1] is reported as greater than 95%. Also, the Ki in data set [2] (ICE 0.24 nM, 250 μM substrate Ac-Tyr-Val-Ala-Asp-AMC, corrected by SPF 17.7, read-out: Ki against ICE) amounted to 1.8 nM. Also, in data set [2] (kon = SPF.kobs/[I], read-out: kon against ICE), the kon is 17200 M⁻¹ s⁻¹.
